Drawing on ChEMBL document CHEMBL1147151, “In vitro optimization of non-small cell lung cancer activity with troxacitabine, L-1,3-dioxolane-cytidine, prodrugs” (J Med Chem, 2007), this text covers IC50 for 22 molecules.

One test concerns A549. The test can be described thus: Cytotoxicity against A549 cells after 72 hrs by SRB assay. In kind it is functional, cell-based. Conditions: Homo sapiens, A549, 72 h.
The next test has as its system SW1573. The test can be described thus: Cytotoxicity against SW1573 cells after 72 hrs by SRB assay. The note with it: Homo sapiens, SW1573, 72 h. In kind it is functional, cell-based. (In SRB staining, fixed cells bind dye roughly in proportion to their protein.)

Turning to `CCCCCCCCCCCC(=O)Nc1ccn([C@@H]2CO[C@H](CO)O2)c(=O)n1`, the values for the IC50 in the test on A549 and with SW1573 were 0.015 µM and 0.03 µM, respectively.
For `CC(=O)Nc1ccn([C@@H]2CO[C@H](CO)O2)c(=O)n1`, the half-inhibitory concentration (IC50) (usually the concentration that inhibits the measured activity by half) in the test with A549 was determined as 6.87 µM; with SW1573, 10.7 µM.
`O=C(Nc1ccn([C@@H]2CO[C@H](CO)O2)c(=O)n1)c1ccc(F)cc1`: the IC50 with A549 was found to be 8.67 µM; in the test with SW1573, 15.3 µM.
In the same order, the values of `O=C(Nc1ccn([C@@H]2CO[C@H](CO)O2)c(=O)n1)c1ccc(Cl)cc1` are 0.41 µM and 2.77 µM.
The like results for `CCCCCCC(=O)Nc1ccn([C@@H]2CO[C@H](CO)O2)c(=O)n1` were, in that order, 1.04 µM and 2.4 µM.
Turning to `O=C(Nc1ccn([C@@H]2CO[C@H](CO)O2)c(=O)n1)c1ccc(Br)cc1`, the figures for the concentration for half-maximal inhibition (IC50) in the test on A549 and in the test with SW1573 were 4.53 µM and 8.87 µM, respectively.
The like results for `O=C(Nc1ccn([C@@H]2CO[C@H](CO)O2)c(=O)n1)C1CCCC1` were, in that order, 2.97 µM and 8.8 µM.
Take `O=C(Nc1ccn([C@@H]2CO[C@H](CO)O2)c(=O)n1)c1ccc(Cl)cc1Cl`: the half-maximal inhibitory concentration (IC50) in the test on A549 amounted to 9.83 µM; in the test with SW1573, 14.3 µM.
The like results for `O=C(Nc1ccn([C@@H]2CO[C@H](CO)O2)c(=O)n1)C1CC1` were, in that order, 18.7 µM and 22 µM.
With `O=C(Nc1ccn([C@@H]2CO[C@H](CO)O2)c(=O)n1)c1ccccc1`, the half-maximal inhibitory concentration (IC50) in the test with A549 worked out at 8.53 µM; in the test on SW1573, 13.7 µM.
The like results for `CCCCCCCCCCCCCCCC(=O)Nc1ccn([C@@H]2CO[C@H](CO)O2)c(=O)n1` were, in that order, 0.004 µM and 0.02 µM.
For the molecule `CCCCCCCCCCCCCCCCCCCC(=O)Nc1ccn([C@@H]2CO[C@H](CO)O2)c(=O)n1`, the 50% inhibitory concentration (IC50) turned out to be 0.03 µM in the test with A549 and 0.15 µM with SW1573.
The like results for `CCCC(=O)Nc1ccn([C@@H]2CO[C@H](CO)O2)c(=O)n1` were, in that order, 6.6 µM and 8.07 µM.
The like results for `CCCCCCCCCCCCCCCCCC(=O)Nc1ccn([C@@H]2CO[C@H](CO)O2)c(=O)n1` were, in that order, 0.025 µM and 0.125 µM.
Consider `CCCCC(=O)Nc1ccn([C@@H]2CO[C@H](CO)O2)c(=O)n1`, for which the half-inhibitory concentration (IC50) with A549 came to 5.23 µM; in the test on SW1573, 9.13 µM.
In the same order, the values of `CCCCCCCCC(=O)Nc1ccn([C@@H]2CO[C@H](CO)O2)c(=O)n1` are 0.046 µM and 0.276 µM.
In the case of `O=C(Nc1ccn([C@@H]2CO[C@H](CO)O2)c(=O)n1)C1CCCCC1`, the values for the concentration for half-maximal inhibition (IC50) in the test on A549 and with SW1573 were 7.37 µM and 14 µM, respectively.
Regarding `COc1ccc(C(=O)Nc2ccn([C@@H]3CO[C@H](CO)O3)c(=O)n2)cc1`, the IC50 is 3.5 µM in the test on A549 and 10 µM in the test on SW1573.
In the case of `CCCCCCCCCCCCCCCCCCCCCC(=O)Nc1ccn([C@@H]2CO[C@H](CO)O2)c(=O)n1`, the concentration for half-maximal inhibition (IC50) with A549 was found to be 0.5 µM; with SW1573 it was 0.9 µM.
Consider `CCCCCCCCCC(=O)Nc1ccn([C@@H]2CO[C@H](CO)O2)c(=O)n1`, for which the values for the half-inhibitory concentration (IC50) in the test with A549 and in the test with SW1573 were 0.024 µM and 0.04 µM, respectively.
`Nc1ccn([C@@H]2O[C@H](CO)[C@@H](O)C2(F)F)c(=O)n1` [GEMCITABINE]: the IC50 in the test on A549 was 13.1 µM; in the test on SW1573, 8.3 µM.
In the same order, the values of `Nc1ccn([C@@H]2CO[C@H](CO)O2)c(=O)n1` [TROXACITABINE] are 0.68 µM and 2.3 µM.
